Results taken from patent publication EP0369453A2, “AGE-formation inhibitory agents” (Takeda Chemical Industries, Ltd., priority 1988, dated 1990).
Marks after values point to notes of the source that are not given here.

Tested on: advanced glycosylated end products (AGE)
Assay: AGE formation inhibition: bovine serum albumin incubated with D-glucose, fluorescence measurement (method of Brownlee et al.)
Assay type: biochemical
Settings: bovine serum albumin 20%, D-glucose 100 mM, 0.5M phosphate buffer pH 7.4, 37° C for 7 days, fluorescence 370/440 nm, control = 100%
Protocol: The production of advanced glycosylated end products (AGE) and its measurement were carried out in accordance with the report by Brownlee et al. [Science, 232 1629 (1986)]. Thus, bovine serum albumin (fraction V, manufactured by Wako Pure Chemical Ind. of Japan, 20%), D-glucose (100 mM) and sodium azide (3 mM) were dissolved in 0.5M phosphate buffer (pH 7.4) to prepare a reaction solution (control). A test specimen was dissolved in dimethyl sulfoxide, and the solution was added to the reaction solution to the concentrations 1 mM, 0.5 mM and 0.2 mM, respectively. These solutions were incubated at 37° C for 7 days, whereupon the solutions, before and after incubation, were diluted with phosphate buffer, followed by measurement of fluoresceces (by use of RF-510 spectrofluorimeter, manufactured by Shimadzu Seisakusho of Japan) at 370 nm of the excitation wavelength and 440 nm of the emission wavelength. The variation in fluorescence (F) was utilized to calculate the formation ratio (%) following the formula described below. In the above tests, the blind test was carried out using the reaction solution free from D-glucose. The AGE were calculated by the following equation: Formation ratio = [ F(T) - F(B)]/[ F(C) - F(B)] x 100 [formula] where F(T), F(B) and F(C) are variations in fluorescence for test specimen, blind test specimen and control, respectively.

[1] = Concentration of test specimen: 0.5 mM
[2] = Concentration of test specimen: 1 mM

Compound	AGE Formation Ratio (% against the control value) [1]	AGE Formation Ratio (% against the control value) [2]
O=C(NC(=S)Nc1nc(-c2ccc3c(c2)CCCC3)cs1)c1ccccc1 [Example 1, 1-benzoyl-3-[4-(5,6,7,8-tetrahydro-2-naphthyl)-2-thiazolyl] thiourea]	43^2) %	
Cc1ccc(-c2csc(NC(=S)NC(=O)c3ccccc3)n2)cc1 [Example 4]		47^1) %
O=C(NC(=S)Nc1nc(-c2ccc(C(F)(F)F)cc2)cs1)c1ccccc1 [Example 8]		58^1) %
O=C(NC(=S)Nc1nc(-c2ccc(Cl)cc2)cs1)c1ccccc1 [Example 10]		30^1) %
COc1ccc(-c2csc(NC(=S)NC(=O)c3ccccc3)n2)cc1 [Example 11]		66^1) %
O=C(NC(=S)Nc1nc(-c2ccc3c(c2)OCCO3)cs1)c1ccccc1 [Example 13]		45^1) %
O=C(NC(=S)Nc1nc(-c2ccc3ccccc3c2)cs1)c1ccccc1 [Example 15]	46^2) %	
CCc1sc(NC(=S)NC(=O)c2ccccc2)nc1-c1ccc2c(c1)CCCC2 [Example 20]	0^2) %	
CC(C)c1sc(NC(=S)NC(=O)c2ccccc2)nc1-c1ccc2c(c1)CCCC2 [Example 21]	19^2) %	
O=C(NC(=S)Nc1nc(-c2ccc3c(c2)CCCC3)c(-c2ccccc2)s1)c1ccccc1 [Example 22]		31^1) %
O=C(NC(=S)Nc1nc(-c2ccc3c(c2)CCCC3)cs1)c1ccc(Cl)cc1 [Example 23, 1-(4-chlorobenzoyl)-3-[4-(5,6.7,8-tetrahydro-2-naphthyl-)2-thiazolyl]thiourea]		51^1) %
O=C(NC(=S)Nc1nc(-c2ccc3c(c2)CCCC3)cs1)c1ccc(F)cc1 [Example 26]	34^2) %	
Cc1ccccc1C(=O)NC(=S)Nc1nc(-c2ccc3c(c2)CCCC3)cs1 [Example 27]		0^1) %
O=C(NC(=S)Nc1nc(-c2ccc3c(c2)CCCC3)cs1)c1ccncc1 [Example 31]	53^2) %	
O=C(NC(=S)Nc1nc(-c2ccc3c(c2)CCCC3)cs1)c1ccc2ccccc2c1 [Example 34]	0^2) %	
O=C(/C=C/c1ccccc1)NC(=S)Nc1nc(-c2ccc3c(c2)CCCC3)cs1 [Example 37]		49^1) %
Cc1ccc(C)c(C(=O)NC(=S)Nc2nc(-c3ccc4c(c3)CCCC4)cs2)c1 [Example 42]	35^2) %	
O=C(NC(=S)Nc1nc(-c2ccc3c(c2)CCCC3)cs1)c1ccccc1C(F)(F)F [Example 47]		16^1) %
O=C(NC(=S)Nc1nc(-c2ccc3c(c2)CCCC3)cs1)c1ccc2c(c1)CCCC2 [Example 60]	17^2) %	
O=C(NC(=S)Nc1nc(-c2ccc3c(c2)CCCC3)cs1)c1c2ccccc2cc2ccccc12 [Example 63]		54^1) %
CCCCC(CC)C(=O)NC(=S)Nc1nc(-c2ccc3c(c2)CCCC3)cs1 (stereo not drawn) [Example 72]		58^1) %
